Laboratory results from PMC3109356 (Bioorganic & medicinal chemistry letters, 2011).

Experiments:
Assay type in all cases: binding
soluble MBP tag = soluble MBP tag (Escherichia coli, UniProt P0AEX9); test: 1H STD NMR with soluble MBP tag as control
[1] = target: M. tuberculosis MshC (MBP-MshC) (Mycobacterium tuberculosis, UniProt P9WJM9); test: 1H STD NMR in the presence of MBP-MshC; settings: for STD relative enhancement for H-2″ / STD relative enhancement for H-3″: normalized to adenine H-2, 20 μM MBP-MshC, 900 μM ligand
MBP-MshC = MBP-MshC (Mycobacterium tuberculosis, UniProt P9WJM9); test: NOESY / transferred NOESY in the presence of MBP-MshC; settings: free in solution vs in the presence of MBP-MshC
MshC = MshC (Mycobacterium tuberculosis, UniProt P9WJM9); test: isothermal titration calorimetry; settings: ITC
Sequence of MshC (P9WJM9 whole entry): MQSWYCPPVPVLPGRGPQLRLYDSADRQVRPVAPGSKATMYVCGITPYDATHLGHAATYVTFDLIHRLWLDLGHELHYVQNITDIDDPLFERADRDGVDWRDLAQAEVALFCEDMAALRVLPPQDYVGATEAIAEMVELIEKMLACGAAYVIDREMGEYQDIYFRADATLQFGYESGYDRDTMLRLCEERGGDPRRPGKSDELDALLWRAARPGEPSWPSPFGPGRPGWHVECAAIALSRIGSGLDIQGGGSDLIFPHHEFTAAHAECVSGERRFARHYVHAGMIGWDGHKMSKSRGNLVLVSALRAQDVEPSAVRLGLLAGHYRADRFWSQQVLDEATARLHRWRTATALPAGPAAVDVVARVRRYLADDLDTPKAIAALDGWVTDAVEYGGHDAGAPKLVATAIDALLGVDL

Sequence of M. tuberculosis MshC (MBP-MshC) (P9WJM9 whole entry): as above
Sequence of MBP-MshC (P9WJM9 whole entry): as above

| SMILES | binding to the soluble MBP tag (soluble MBP tag) | STD relative enhancement for H-2″ [1] [%] | STD relative enhancement for H-3″ [1] | NOESY/trNOESY cross peaks (binding) (MBP-MshC) | signal-to-noise (S/N) ratio in the STD difference spectra ([1]; in the presence of MshC, reference spectra S/N 170) | heats of binding (MshC) |
| --- | --- | --- | --- | --- | --- | --- |
| Nc1ncnc2c1ncn2[C@@H]1O[C@H](COS(=O)(=O)NC(=O)[C@@H](N)CS)[C@@H](O)[C@H]1O [Compound 1, 5′-O-[N-(L-cysteinyl)sulfamoyl] adenosine] | No binding was observed | 21 | 10% | cross peaks changed in sign from positive to negative |  |  |
| Nc1ncnc2c1ncn2[C@@H]1O[C@H](COS(=O)(=O)NC(=O)[C@@H](N)CC(=O)O)[C@@H](O)[C@H]1O [Compound 3] | No binding was observed | 12 | no effect could be observed | did not contain any cross peaks | 20 | No heats of binding were detected |
